Experiments:
[1] = wavelength (λmax) at absorption spectrum peak and gram absorption coefficient at λmax; type: physicochemical; conditions: for λmax: wavelength at absorption spectrum peak
[2] = solubility to propylene glycol monomethyl ether acetate (PM) and cyclohexanone (AN); conditions: for Solubility to Solvent AN: cyclohexanone; for Solubility to Solvent PM: propylene glycol monomethyl ether acetate

Compound	Gram Absorption Coefficient at λmax [1]	λmax [1] [nm]	Solubility to Solvent AN [2] [mass %]	Solubility to Solvent PM [2] [mass %]
COc1ccc(/C=C/C(=O)N2CCCCC2)c([N+](=O)[O-])c1 [Compound 13]	87	313	>50	>50
COc1ccc(/C=C/C(=O)n2ccnc2)c([N+](=O)[O-])c1 [Compound 5]	121	332	–	–
COc1ccc(C=CC(=O)n2ccnc2)c(O)c1 [compound 9, reference compound]	65	290	>50	>50
CCN(CC)C(=O)C=Cc1ccc(OC)cc1O [compound 7, reference compound]	72	304	>50	>50
COc1ccc(C=C(C)C(=O)n2ccnc2)cc1 [Compound 18]	84	301	–	–
COc1ccc(/C=C/C(=O)N2CCOCC2)cc1 [Compound 4]	79	310	–	–
COc1ccc(/C=C(\C)C(=O)n2ccnc2)cc1[N+](=O)[O-] [Compound 8]	98	351	–	–
CCN(CC)C(=O)/C=C/c1ccc(OC)cc1[N+](=O)[O-] [Compound 9]	102	342	>50	>50
CCN(CC)C(=O)C(C)=Cc1ccc(OC)cc1 [Compound 19]	86	318	>50	>50
CCO[Si](C)(CCCN)OCC [Comparative Compound 6, reference compound]	143	212	>50	>50
COc1ccc(/C=C(\C)C(=O)N2CCCCC2)cc1[N+](=O)[O-] [Compound 16]	105	323	>50	>50
COc1ccc(/C=C(\C)C(=O)N2CCCCC2)c([N+](=O)[O-])c1 [Compound 15]	92	313	>50	>50
CCN(CC)C(=O)/C(C)=C/c1ccc(OC)c([N+](=O)[O-])c1 [Compound 12]	127	361	>50	>50
COc1ccc(/C=C/C(=O)Nc2ccccc2)cc1 [Compound 2]	117	317	>50	>50
COc1ccc(/C=C/C(=O)n2ccnc2)cc1 [Compound 3]	81	293	>50	>50
COc1ccc(C=CC(=O)N2CCCCC2)cc1 [Compound 17]	74	281	>50	>50
CCN(CC)C(=O)/C=C/c1ccc(OC)c([N+](=O)[O-])c1 [Compound 10]	119	354	>50	>50
COc1ccccc1/C=C/C(=O)N1CCCCC1 [Comparative Compound 2, reference compound]	76	275	<1	<1
CCN(CC)C(=O)/C(C)=C/c1ccc(OC)cc1[N+](=O)[O-] [Compound 11]	107	349	>50	>50
COc1ccc(/C=C/C(=O)N2CCCCC2)cc1[N+](=O)[O-] [Compound 14]	94	322	>50	>50
COc1ccc(/C=C/C(=O)n2ccnc2)cc1[N+](=O)[O-] [Compound 6]	86	344	–	–
COc1ccc(/C=C(\C)C(=O)n2ccnc2)c([N+](=O)[O-])c1 [Compound 7]	137	339	>50	>50
CCN(CC)C(=O)/C=C/c1ccc(OC)cc1 [Compound 1]	90	309	>50	>50
